Measured values from article PMC9851200, “Multiparameter phenotypic screening for endogenous TFEB and TFE3 translocation identifies novel chemical series modulating lysosome function” (Autophagy, 2022).
Like-named read-outs stand apart in the source and are kept apart here.

Legend:
Experiment in all cases: biochemical
Format in all cases: binding
[1] = target: T1, cellular kinases of SH-SY5Y cells (Homo sapiens, UniProt P46734); settings: 2µM, SH-SY5Y cells
T1 sequence (P46734 1-347): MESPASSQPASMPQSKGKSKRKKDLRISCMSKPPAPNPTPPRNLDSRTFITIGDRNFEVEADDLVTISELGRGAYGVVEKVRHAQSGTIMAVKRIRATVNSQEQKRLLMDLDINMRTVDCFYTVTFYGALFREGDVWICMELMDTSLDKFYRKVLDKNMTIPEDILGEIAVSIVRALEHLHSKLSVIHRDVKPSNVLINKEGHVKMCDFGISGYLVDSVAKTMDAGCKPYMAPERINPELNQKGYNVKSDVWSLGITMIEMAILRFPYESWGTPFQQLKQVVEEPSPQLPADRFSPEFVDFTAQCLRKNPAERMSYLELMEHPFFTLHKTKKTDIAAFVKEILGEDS
Source text: (§1) As KINOMEscan is an in vitro assay, and as different cell types have variable kinase expression profiles we sought to determine the kinase binding profile in our SH-SY5Y TFEB-relocalization cell model. […] Bound kinases were pulled down and analyzed by mass spectrometry to determine the in situ kinase binding profile for each compound.

[2] = target: T2, cellular kinases of SH-SY5Y cells (Homo sapiens, UniProt Q7RTN6); settings: 2µM; SH-SY5Y cells; Labeling Site Activation Loop; YSVKVLPWLSPEVLQQNLQGYDAK; read-out: KiNativ in-cell binding, % Inhibition, STRADA
T2 construct: endogenous in cells; host or cells: SH-SY5Y
Source text: as §1

[3] = target: cellular kinases of SH-SY5Y cells (Homo sapiens, UniProt Q96RR4); settings: 2µM, SH-SY5Y cells
Source text: as §1

[4] = target: cellular kinases of SH-SY5Y cells (Homo sapiens, UniProt P29317); settings: 2µM; SH-SY5Y cells; Labeling Site Activation Loop; VLEDDPEATYTTSGGKIPIR; read-out: KiNativ in-cell binding, % Inhibition, EphA2
Source text: as §1

[5] = target: T3, cellular kinases of SH-SY5Y cells (Homo sapiens, UniProt Q14004); settings: read-out: KiNativ in-cell binding, % Inhibition, CDK13/CHED
T3 construct: endogenous in cells; host or cells: SH-SY5Y
Source text: as §1

[6] = target: cellular kinases of SH-SY5Y cells (Homo sapiens, UniProt Q13464); settings: 2µM; SH-SY5Y cells; Labeling Site Other; KLQLELNQER; read-out: KiNativ in-cell binding, % Inhibition, ROCK1
Source text: as §1

[7] = target: cellular kinases of SH-SY5Y cells (Homo sapiens, UniProt P06493); settings: 2µM; SH-SY5Y cells; Labeling Site Lys2; DLKPQNLLIDDK; read-out: KiNativ in-cell binding, % Inhibition, CDK1/CDC2
Source text: as §1

[8] = target: cellular kinases of SH-SY5Y cells (Homo sapiens, UniProt Q99683); settings: 2µM; SH-SY5Y cells; Labeling Site Lys2; DIKGDNVLINTYSGVLK; read-out: KiNativ in-cell binding, % Inhibition, MAP3K5
Source text: as §1

[9] = test system: cellular kinases of SH-SY5Y cells
Source text: as §1

[10] = target: T4, cellular kinases of SH-SY5Y cells (Homo sapiens, UniProt P45985); settings: 2µM, SH-SY5Y cells; for inhibition at 2 µM: read-out: KiNativ in-cell binding, % Inhibition, MAP2K4
T4 sequence (P45985 1-399): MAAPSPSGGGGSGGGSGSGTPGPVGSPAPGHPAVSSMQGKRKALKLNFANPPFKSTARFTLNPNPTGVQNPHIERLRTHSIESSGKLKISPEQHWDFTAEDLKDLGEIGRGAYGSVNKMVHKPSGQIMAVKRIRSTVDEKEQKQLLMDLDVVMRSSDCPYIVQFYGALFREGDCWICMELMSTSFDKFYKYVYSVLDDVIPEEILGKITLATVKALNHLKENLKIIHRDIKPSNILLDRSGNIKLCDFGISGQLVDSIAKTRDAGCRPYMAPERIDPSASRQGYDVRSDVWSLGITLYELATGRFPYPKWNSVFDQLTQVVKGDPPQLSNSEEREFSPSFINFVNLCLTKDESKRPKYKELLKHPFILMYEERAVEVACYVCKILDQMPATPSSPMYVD
Source text: as §1

[11] = target: cellular kinases of SH-SY5Y cells (Homo sapiens, UniProt Q9HCP0); settings: 2µM; SH-SY5Y cells; Labeling Site Lys2; DVKPENFLIGR; read-out: KiNativ in-cell binding, % Inhibition, CK1g1
Source text: as §1

[12] = target: T5, cellular kinases of SH-SY5Y cells (Homo sapiens, UniProt P51956); settings: 2µM; SH-SY5Y cells; Labeling Site Activation Loop; SKNIFLTQNGK; read-out: KiNativ in-cell binding, % Inhibition, NEK3
T5 construct: endogenous in cells; host or cells: SH-SY5Y
Source text: as §1

[13] = target: cellular kinases of SH-SY5Y cells (Homo sapiens, UniProt P31749); settings: 2µM; SH-SY5Y cells; Labeling Site ATP Loop; GTFGKVILVK; read-out: KiNativ in-cell binding, % Inhibition, AKT1
Source text: as §1

cellular kinases of SH-SY5Y cells (Homo sapiens, UniProt Q96RR4), sequence (Q96RR4 whole entry): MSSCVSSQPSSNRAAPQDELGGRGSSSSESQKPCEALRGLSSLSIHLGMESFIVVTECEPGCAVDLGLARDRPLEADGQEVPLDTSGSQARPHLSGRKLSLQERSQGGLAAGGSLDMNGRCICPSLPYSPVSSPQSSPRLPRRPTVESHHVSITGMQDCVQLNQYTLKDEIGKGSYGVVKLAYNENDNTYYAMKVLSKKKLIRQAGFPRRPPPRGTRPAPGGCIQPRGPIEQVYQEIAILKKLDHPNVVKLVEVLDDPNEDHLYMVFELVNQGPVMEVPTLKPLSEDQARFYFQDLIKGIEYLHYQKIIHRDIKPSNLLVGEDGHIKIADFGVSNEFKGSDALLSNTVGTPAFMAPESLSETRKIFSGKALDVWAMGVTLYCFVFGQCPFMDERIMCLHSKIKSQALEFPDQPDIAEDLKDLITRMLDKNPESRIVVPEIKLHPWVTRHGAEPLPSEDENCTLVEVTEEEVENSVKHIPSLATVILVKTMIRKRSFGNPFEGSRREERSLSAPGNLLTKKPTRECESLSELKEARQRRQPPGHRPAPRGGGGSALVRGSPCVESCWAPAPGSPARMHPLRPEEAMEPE
cellular kinases of SH-SY5Y cells (Homo sapiens, UniProt P06493), sequence (P06493 whole entry): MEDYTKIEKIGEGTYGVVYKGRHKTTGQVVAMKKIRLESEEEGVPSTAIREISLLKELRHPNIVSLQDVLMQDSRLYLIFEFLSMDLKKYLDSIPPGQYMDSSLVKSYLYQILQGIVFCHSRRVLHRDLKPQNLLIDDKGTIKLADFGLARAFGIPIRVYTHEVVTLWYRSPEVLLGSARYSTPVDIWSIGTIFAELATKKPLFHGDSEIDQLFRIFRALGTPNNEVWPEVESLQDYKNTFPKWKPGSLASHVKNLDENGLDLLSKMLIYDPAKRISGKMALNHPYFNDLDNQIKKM
cellular kinases of SH-SY5Y cells (Homo sapiens, UniProt P31749), sequence (P31749 whole entry): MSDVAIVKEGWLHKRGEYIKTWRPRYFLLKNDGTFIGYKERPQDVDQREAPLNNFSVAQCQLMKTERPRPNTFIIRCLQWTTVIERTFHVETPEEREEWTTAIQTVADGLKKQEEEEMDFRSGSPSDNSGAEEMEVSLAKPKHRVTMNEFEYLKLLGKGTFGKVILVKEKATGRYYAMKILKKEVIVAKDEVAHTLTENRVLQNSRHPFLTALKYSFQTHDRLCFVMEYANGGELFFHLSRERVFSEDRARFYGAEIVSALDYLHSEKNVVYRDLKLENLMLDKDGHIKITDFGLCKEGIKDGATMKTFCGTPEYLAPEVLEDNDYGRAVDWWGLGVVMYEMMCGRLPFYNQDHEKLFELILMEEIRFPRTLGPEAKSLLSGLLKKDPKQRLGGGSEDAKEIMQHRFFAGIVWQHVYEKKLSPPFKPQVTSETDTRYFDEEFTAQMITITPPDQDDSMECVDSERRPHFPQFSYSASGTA
cellular kinases of SH-SY5Y cells (Homo sapiens, UniProt Q9HCP0), sequence (Q9HCP0 whole entry): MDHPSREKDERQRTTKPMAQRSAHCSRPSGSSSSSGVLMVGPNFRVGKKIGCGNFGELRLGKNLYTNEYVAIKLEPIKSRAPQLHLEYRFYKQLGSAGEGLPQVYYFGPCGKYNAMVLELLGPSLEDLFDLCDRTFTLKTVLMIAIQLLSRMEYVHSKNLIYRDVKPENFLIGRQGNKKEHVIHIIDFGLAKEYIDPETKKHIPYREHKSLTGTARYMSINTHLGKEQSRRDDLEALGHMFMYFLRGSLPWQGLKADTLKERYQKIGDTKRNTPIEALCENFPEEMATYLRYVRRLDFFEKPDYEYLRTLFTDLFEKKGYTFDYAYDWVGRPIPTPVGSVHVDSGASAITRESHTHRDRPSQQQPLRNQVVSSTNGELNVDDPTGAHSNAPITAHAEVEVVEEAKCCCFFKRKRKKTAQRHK
cellular kinases of SH-SY5Y cells (Homo sapiens, UniProt P29317), sequence (P29317 24-976): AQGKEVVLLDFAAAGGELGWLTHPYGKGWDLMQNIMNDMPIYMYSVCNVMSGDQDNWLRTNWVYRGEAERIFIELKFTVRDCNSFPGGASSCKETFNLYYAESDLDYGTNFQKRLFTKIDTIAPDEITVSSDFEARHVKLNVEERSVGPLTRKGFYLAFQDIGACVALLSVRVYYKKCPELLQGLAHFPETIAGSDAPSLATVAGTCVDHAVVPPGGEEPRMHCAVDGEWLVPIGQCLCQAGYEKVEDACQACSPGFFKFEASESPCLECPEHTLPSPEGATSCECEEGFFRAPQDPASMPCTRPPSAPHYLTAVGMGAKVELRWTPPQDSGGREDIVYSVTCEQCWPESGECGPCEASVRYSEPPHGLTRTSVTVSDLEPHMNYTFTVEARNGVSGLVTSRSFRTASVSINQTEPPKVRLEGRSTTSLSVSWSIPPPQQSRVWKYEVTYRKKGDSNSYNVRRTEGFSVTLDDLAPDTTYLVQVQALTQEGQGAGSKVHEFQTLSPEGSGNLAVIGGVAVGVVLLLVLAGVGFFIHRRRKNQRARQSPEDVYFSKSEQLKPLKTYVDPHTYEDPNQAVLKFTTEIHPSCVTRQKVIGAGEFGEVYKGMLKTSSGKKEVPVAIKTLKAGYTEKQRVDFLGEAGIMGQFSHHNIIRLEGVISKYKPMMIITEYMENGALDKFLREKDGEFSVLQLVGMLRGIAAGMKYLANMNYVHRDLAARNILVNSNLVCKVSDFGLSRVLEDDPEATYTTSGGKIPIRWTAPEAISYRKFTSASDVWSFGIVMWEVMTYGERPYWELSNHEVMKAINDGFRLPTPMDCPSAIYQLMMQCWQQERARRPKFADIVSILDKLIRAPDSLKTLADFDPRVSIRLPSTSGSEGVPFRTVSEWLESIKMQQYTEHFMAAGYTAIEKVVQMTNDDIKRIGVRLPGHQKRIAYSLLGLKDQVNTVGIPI
cellular kinases of SH-SY5Y cells (Homo sapiens, UniProt Q13464), sequence (Q13464 whole entry): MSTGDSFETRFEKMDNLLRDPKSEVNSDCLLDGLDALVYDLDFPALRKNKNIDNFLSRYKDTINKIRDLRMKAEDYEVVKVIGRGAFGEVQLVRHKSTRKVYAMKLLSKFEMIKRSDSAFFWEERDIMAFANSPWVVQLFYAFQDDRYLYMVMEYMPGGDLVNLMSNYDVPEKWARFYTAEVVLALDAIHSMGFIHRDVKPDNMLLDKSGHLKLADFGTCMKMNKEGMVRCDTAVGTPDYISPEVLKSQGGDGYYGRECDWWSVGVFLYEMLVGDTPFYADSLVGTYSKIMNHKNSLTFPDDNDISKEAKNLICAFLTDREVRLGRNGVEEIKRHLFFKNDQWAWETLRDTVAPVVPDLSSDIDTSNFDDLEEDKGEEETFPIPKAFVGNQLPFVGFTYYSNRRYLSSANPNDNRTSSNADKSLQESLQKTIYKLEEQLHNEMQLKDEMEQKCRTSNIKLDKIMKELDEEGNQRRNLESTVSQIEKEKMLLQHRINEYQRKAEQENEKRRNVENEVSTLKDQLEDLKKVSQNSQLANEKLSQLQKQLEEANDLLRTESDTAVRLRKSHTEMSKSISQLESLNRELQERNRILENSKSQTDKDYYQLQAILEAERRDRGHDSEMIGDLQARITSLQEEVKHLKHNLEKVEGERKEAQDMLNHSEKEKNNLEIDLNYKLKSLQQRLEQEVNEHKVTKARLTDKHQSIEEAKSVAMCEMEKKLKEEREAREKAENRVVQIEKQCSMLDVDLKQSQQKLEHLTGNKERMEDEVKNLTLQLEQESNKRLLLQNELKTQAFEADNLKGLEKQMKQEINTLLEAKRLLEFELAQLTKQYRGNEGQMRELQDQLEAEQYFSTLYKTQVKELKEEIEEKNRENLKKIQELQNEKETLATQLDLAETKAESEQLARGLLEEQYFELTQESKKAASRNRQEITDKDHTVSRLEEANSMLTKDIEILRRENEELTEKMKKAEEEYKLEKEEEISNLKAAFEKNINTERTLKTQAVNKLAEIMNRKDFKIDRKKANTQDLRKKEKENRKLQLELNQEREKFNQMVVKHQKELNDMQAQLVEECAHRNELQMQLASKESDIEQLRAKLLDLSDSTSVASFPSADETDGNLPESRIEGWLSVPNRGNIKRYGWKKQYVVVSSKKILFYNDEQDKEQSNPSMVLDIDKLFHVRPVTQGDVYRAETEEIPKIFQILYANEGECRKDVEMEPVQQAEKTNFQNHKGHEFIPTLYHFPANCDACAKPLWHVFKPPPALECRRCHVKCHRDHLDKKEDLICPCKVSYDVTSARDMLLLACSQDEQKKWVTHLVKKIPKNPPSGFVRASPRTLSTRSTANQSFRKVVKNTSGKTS
T2 sequence (Q7RTN6 whole entry): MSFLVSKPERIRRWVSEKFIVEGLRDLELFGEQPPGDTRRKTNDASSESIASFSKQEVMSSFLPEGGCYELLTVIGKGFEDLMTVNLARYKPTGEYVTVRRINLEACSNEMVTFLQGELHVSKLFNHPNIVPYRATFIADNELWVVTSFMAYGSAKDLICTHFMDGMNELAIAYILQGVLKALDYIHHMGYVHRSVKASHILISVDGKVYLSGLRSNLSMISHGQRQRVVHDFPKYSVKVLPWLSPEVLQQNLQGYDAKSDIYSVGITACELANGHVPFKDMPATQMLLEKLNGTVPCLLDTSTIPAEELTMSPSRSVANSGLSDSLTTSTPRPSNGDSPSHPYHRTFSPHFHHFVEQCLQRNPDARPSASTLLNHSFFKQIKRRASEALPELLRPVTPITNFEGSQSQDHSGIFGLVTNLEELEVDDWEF
T5 sequence (P51956 whole entry): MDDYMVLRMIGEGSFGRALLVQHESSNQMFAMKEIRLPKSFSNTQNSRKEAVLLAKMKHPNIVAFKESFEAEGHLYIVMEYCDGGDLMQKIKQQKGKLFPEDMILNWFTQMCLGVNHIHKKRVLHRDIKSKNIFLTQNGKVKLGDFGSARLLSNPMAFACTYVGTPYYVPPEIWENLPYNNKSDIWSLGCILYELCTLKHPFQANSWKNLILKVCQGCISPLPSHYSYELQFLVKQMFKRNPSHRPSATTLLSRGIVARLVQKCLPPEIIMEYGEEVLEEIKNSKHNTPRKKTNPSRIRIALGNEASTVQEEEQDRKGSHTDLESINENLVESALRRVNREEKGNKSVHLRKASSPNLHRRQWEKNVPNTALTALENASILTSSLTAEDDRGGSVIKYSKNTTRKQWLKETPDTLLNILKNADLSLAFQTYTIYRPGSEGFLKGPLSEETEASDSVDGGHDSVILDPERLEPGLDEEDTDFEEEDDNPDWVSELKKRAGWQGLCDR

In the case of `Cc1cccc(-c2nc(Nc3ccc4ncsc4c3)c3ccccc3n2)n1` [NK140], the inhibition at 2 µM ([1]; Labeling Site Activation Loop, MCDFGISGYLVDSVAKTMDAGCKPYMAPER, read-out: KiNativ in-cell binding, % Inhibition, MAP2K3) was 2.5%, the “KiNativ in-cell binding, MAP2K3” value ([1]; labeling site Lys1, peptide HAQSGTIMAVKR) was -144.3 and the “KiNativ in-cell binding, MAP2K3” value ([1]; labeling site Lys2, peptide DVKPSNVLINK) was -182.7. For the same compound, the inhibition at 2 µM [2] was 48.6%, the inhibition at 2 µM ([3]; Labeling Site Lys1, LAYNENDNTYYAMKVLSK, read-out: KiNativ in-cell binding, % Inhibition, CaMKK2) was -64% and the “KiNativ in-cell binding, CaMKK2” value ([3]; labeling site Lys2, peptide DIKPSNLLVGEDGHIK) was -31.8. For the same compound, the inhibition at 2 µM [4] was 1.2%, the inhibition at 2 µM [5] was -3.7% and the inhibition at 2 µM [6] was 1.3%. The inhibition at 2 µM [7] was -2.3%, the inhibition at 2 µM [8] was 18.7% and the “KiNativ in-cell binding, % Inhibition, CaMK2a, CaMK2b, CaMK2d, CaMK2g” value [9] was 16.4%. For the same compound, the “KiNativ in-cell binding, AKT1, AKT3” value [9] was -0.000814, the “KiNativ in-cell binding, % Inhibition, AKT1, AKT3” value ([9]; 2 µM) was 34.2% and the “KiNativ in-cell binding, % Inhibition, STK17A/DRAK1, STK17B/DRAK2” value ([9]; 2µM, SH-SY5Y cells, Labeling Site ATP Loop, GKFAVVR) was -4.6%. For the same compound, the “KiNativ in-cell binding, % Inhibition, AURKA/AurA, AURKB/AurB, AURKC/AurC” value ([9]; 2µM, SH-SY5Y cells, Labeling Site ATP Loop, GKFGNVYLAR) was 24.2%, the “KiNativ in-cell binding, % Inhibition, CSNK1G1, CSNK1G2, CSNK1G3” value ([9]; 2µM, SH-SY5Y cells, Labeling Site ATP Loop, KIGCGNFGELR) was 8.1% and the “KiNativ in-cell binding, % Inhibition, Wnk1, Wnk2, Wnk4” value ([9]; 2µM, SH-SY5Y cells, Labeling Site Activation Loop, IGDLGLATLKR) was 6.9%. The “KiNativ in-cell binding, % Inhibition, MERTK/MER, TYRO3” value ([9]; 2µM, SH-SY5Y cells, Labeling Site Activation Loop, KIYSGDYYR) was -4.5%, the “KiNativ in-cell binding, % Inhibition, KSR1, KSR2” value ([9]; 2µM, SH-SY5Y cells, Labeling Site Activation Loop, SKNVFYDNGK) was 5.1% and the “KiNativ in-cell binding, % Inhibition, MARK3, MARK4” value ([9]; 2µM, SH-SY5Y cells, Labeling Site Lys1, EVAIKIIDK) was 2.7%. For the same compound, the “KiNativ in-cell binding, % Inhibition, MARK1, MARK2” value ([9]; 2µM, SH-SY5Y cells, Labeling Site Lys1, EVAVKIIDK) was 1.8%, the “KiNativ in-cell binding, % Inhibition, TAOK1, TAOK3” value ([9]; 2µM, SH-SY5Y cells, Labeling Site Lys2, DIKAGNILLTEPGQVK) was 26.0% and the “KiNativ in-cell binding, % Inhibition, MAP3K2, MAP3K3” value ([9]; 2µM, SH-SY5Y cells, Labeling Site Lys2, DIKGANILR) was 28.5%. The “KiNativ in-cell binding, % Inhibition, NEK6, NEK7” value ([9]; 2µM, SH-SY5Y cells, Labeling Site Lys2, DIKPANVFITATGVVK) was -7.5%, the “KiNativ in-cell binding, % Inhibition, MARK2, MARK3” value ([9]; 2µM, SH-SY5Y cells, Labeling Site Lys2, DLKAENLLLDADMNIK) was -28.6% and the “KiNativ in-cell binding, % Inhibition, Wnk1, Wnk2, Wnk3” value ([9]; 2µM, SH-SY5Y cells, Labeling Site Lys2, DLKCDNIFITGPTGSVK) was 6.4%. The “KiNativ in-cell binding, % Inhibition, PRKCA/PKCa, PRKCB/PKCb” value ([9]; 2µM, SH-SY5Y cells, Labeling Site Lys2, DLKLDNVMLDSEGHIK) was -2.4%, the “KiNativ in-cell binding, % Inhibition, CSNK1D, CSNK1E” value ([9]; 2µM, SH-SY5Y cells, Labeling Site Lys2, DVKPDNFLMGLGKK) was 19.5% and the “KiNativ in-cell binding, % Inhibition, ROCK1, ROCK2” value ([9]; 2µM, SH-SY5Y cells, Labeling Site Lys2, DVKPDNMLLDK) was -44.8%. The “KiNativ in-cell binding, % Inhibition, MAPKAPK2, MAPKAPK3” value ([9]; 2µM, SH-SY5Y cells, Labeling Site Lys2, DVKPENLLYTSK) was 16.8%, the “KiNativ in-cell binding, % Inhibition, PRKCA/PKCa, PRKCG/PKCg” value ([9]; 2µM, SH-SY5Y cells, Labeling Site Other, NLIPMDPNGLSDPYVKLK) was -18.8% and the “KiNativ in-cell binding, % Inhibition, PI4KA, PI4KAP2” value ([9]; 2µM, SH-SY5Y cells, Labeling Site Unassigned, SGTPMQSAAKAPYLAK) was 1.2%. The “KiNativ in-cell binding, IKKe, TBK1” value ([9]; 2µM, SH-SY5Y cells, labeling site Lys2, peptide DIKPGNIMR) was -85.5, the “KiNativ in-cell binding, MYO3A, MYO3B” value ([9]; 2µM, SH-SY5Y cells, labeling site Lys2, peptide DVKGNNILLTTEGGVK) was 0.9 and the “KiNativ in-cell binding, MAP2K1, MAP2K2” value ([9]; 2µM, SH-SY5Y cells, labeling site Lys2, peptide DVKPSNILVNSR) was -3.2. The inhibition at 2 µM ([10]; Labeling Site Activation Loop, LCDFGISGQLVDSIAKTR) was -2.3%, the inhibition at 2 µM ([10]; Labeling Site Lys2, DIKPSNILLDR) was 4% and the “KiNativ in-cell binding, MAP2K4” value ([10]; labeling site Lys1, peptide MVHKPSGQIMAVKR) was 26.1. The inhibition at 2 µM [11] was -28.2%, the inhibition at 2 µM [12] was -13.4% and the inhibition at 2 µM [13] was 21.9%.
